Assay results reported in patent publication US11965122B2, “Method for visually enhancing the experience of an audience during a performance” (PROLUME, LTD., priority 2012, dated 2024).

Columns and labels:
[1] = test system: calcium activated photoprotein (CAP); conditions: cited from earlier work; for RLC*: relative to native = 1.00; for Relative Intensity †: relative to native = 1
Rabbit conjunctiva = assay: Coelenterazine applied directly in Rabbit conjunctiva; assay type: in vivo; conditions: multiple sets applied directly in Rabbit conjunctiva, even at high concentrations
Source text: Denuded and scratched corneal surfaces should release more calcium then a sealed intact healthy cornea and a CAP may be used alone or in conjunction with fluorescein dye to reveal the exact location of the foreign body or severity of the ocular corneal scratch.

[2] = test system: Renilla muelleri Luciferase; assay: Luminescent activity of Renilla muelleri Luciferase with Coelenterazine analogues; assay type: biochemical; conditions: integrated over 10 sec
Source text: FIG. 21 is luminescent activity of Renilla muelleri Luciferase with methoxy eCTZ and methoxy eCTZf.

[3] = Brightness of ultraviolet producing Coelenterazine analog
Source text: Diagnosis of conjunctiva pathology and corneal scratches and other acute ocular emergencies such as foreign objects is best performed using an ultraviolet lamp and fluorescein dye. However there are situations, such as camping, or in poorer nations where electricity and ultraviolet lamps are not available. Another embodiment of this invention is a kit containing fluorescein dye, and a CARP manufactured using a ultraviolet producing Coelenterazine analog such as 400a or better because it is much brighter, is methoxy-eCoelenterazine analog contained and stabilized within a freeze dried CARP which can be used for eye examinations in the field.

| Compound | Half-Rise Time ‡ [1] | RLC* [1] | Relative Intensity † [1] | ocular injury (Rabbit conjunctiva) | duration of light emission ([1]; CAP manufactured with the analog, delayed spring-opening, over tens of minutes) | light-output relative to methoxy eCTZf [2] | brightness compared with 400a [3] |
| --- | --- | --- | --- | --- | --- | --- | --- |
| O=c1c(Cc2ccc(F)cc2)nc2c(Cc3ccccc3)[nH]c(-c3ccc(O)cc3)cn1-2 [f] | 6 to 30 ms | 0.80 | 20 |  |  |  |  |
| O=c1c(Cc2ccccc2)nc2c(Cc3ccccc3)[nH]c(-c3ccc(O)cc3)cn1-2 [h] | 6 to 30 ms | 0.75 | 16 |  |  |  |  |
| O=c1c(Cc2ccccc2)nc2c(CC3CCCC3)[nH]c(-c3ccc(O)cc3)cn1-2 [hcp] | 2 to 5 ms | 0.65 | 500 |  |  |  |  |
| Oc1ccc(Cc2nc3c(Cc4ccccc4)nc(-c4ccc(O)cc4)cn3c2O)cc1 [Coelenterazine] | 6 to 30 ms | 1.00 | 1 | failed to produce any ocular injury |  |  |  |
| Coelenterazine-Iodide |  |  |  |  | prolongs light emission |  |  |
| O=c1c(Cc2ccc(O)cc2)nc2c(CC3CCCC3)[nH]c(-c3ccc(O)cc3)cn1-2 [cp] | 2 to 5 ms | 0.63 | 28 |  |  |  |  |
| Methoxy-e-Coelenterazine [Methoxy eCTZ] |  |  |  |  |  | approx. two-fold | much brighter |
